According to PubChem BioAssay AID2060615 (Molecular Pharmacology Branch, DTP, NCI, 2025):

Test system: 496974-208-R-J2-PDC complex spheroids, growth % test/control
Assay: Anticancer human tumor 496974-208-R-J2-PDC patient-derived pancreatic carcinoma cell line growth inhibition [CLK]
Details: for IC50: curve of first compound; for viability, T/C: stronger effect = lower value; active = viability on the fitted dose curve at most 10% of control; inactive = the rest
Procedure, shortened: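 Patient-derived tumor cells grown as complex spheroids with HUVEC endothelial cells and mesenchymal stem cells, treated with drug combinations. Concentrations descend in half-log steps from near clinical Cmax, or from 10 microM if Cmax unknown.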

[1] = second compound 0.0316 µM, first compound 0.0316 µM
[2] = second compound 0.0316 µM, first compound 0.1 µM
[3] = second compound 0.0316 µM, first compound 0.316 µM
[4] = second compound 0.0316 µM, first compound 1 µM
[5] = second compound 0.1 µM, first compound 0.0316 µM
[6] = second compound 0.1 µM, first compound 0.1 µM
[7] = second compound 0.1 µM, first compound 0.316 µM
[8] = second compound 0.1 µM, first compound 1 µM
[9] = second compound 0.316 µM, first compound 0.0316 µM
[10] = second compound 0.316 µM, first compound 0.1 µM
[11] = second compound 0.316 µM, first compound 0.316 µM
[12] = second compound 0.316 µM, first compound 1 µM
[13] = second compound 1 µM, first compound 0.0316 µM
[14] = second compound 1 µM, first compound 0.1 µM
[15] = second compound 1 µM, first compound 0.316 µM
[16] = second compound 1 µM, first compound 1 µM
[17] = second compound 3.16 µM, first compound 0.0316 µM
[18] = second compound 3.16 µM, first compound 0.1 µM
[19] = second compound 3.16 µM, first compound 0.316 µM
[20] = second compound 3.16 µM, first compound 1 µM
[21] = second compound 10 µM, first compound 0.0316 µM
[22] = second compound 10 µM, first compound 0.1 µM
[23] = second compound 10 µM, first compound 0.316 µM
[24] = second compound 10 µM, first compound 1 µM
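Also: spheroids exposed to the drugs for 7 days before readout.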
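For viability, T/C in this document: 100% = DMSO vehicle control wells.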

CC(=O)O[C@H]1C(=O)[C@@]2(C)[C@H]([C@H](OC(=O)c3ccccc3)[C@]3(O)C[C@H](OC(=O)[C@H](O)[C@@H](NC(=O)c4ccccc4)c4ccccc4)C(C)=C1C3(C)C)[C@]1(OC(C)=O)CO[C@@H]1C[C@@H]2O + CN1CCN(c2cc(C(=O)Nc3cc4cc(-c5cnn(C)c5)ccc4cn3)ccn2)CC1
inactive: viability, T/C [1] 35.9% | viability, T/C [2] 29.4% | viability, T/C [3] 33.5% | viability, T/C [4] 29.2% | viability, T/C (second compound 0.0316 µM, first compound 3.16 µM) 31.5% | viability, T/C (second compound 0.0316 µM, first compound 10 µM) 27.9% | viability, T/C [5] 29.4% | viability, T/C [6] 25.9% | viability, T/C [7] 27.7% | viability, T/C [8] 29.5% | viability, T/C (second compound 0.1 µM, first compound 3.16 µM) 24.8% | viability, T/C (second compound 0.1 µM, first compound 10 µM) 23.7%
active: viability, T/C [9] 5.33% | viability, T/C [10] 4.57% | viability, T/C [11] 5.74% | viability, T/C [12] 4.55% | viability, T/C (second compound 0.316 µM, first compound 3.16 µM) 5.22% | viability, T/C (second compound 0.316 µM, first compound 10 µM) 4.68% | viability, T/C [13] 0.41% | viability, T/C [14] 0.53% | viability, T/C [15] 0.5% | viability, T/C [16] 0.41% | viability, T/C (second compound 1 µM, first compound 3.16 µM) 0.36% | viability, T/C (second compound 1 µM, first compound 10 µM) 0.37% | viability, T/C [17] 0.58% | viability, T/C [18] 0.77% | viability, T/C [19] 2.07% | viability, T/C [20] 0.54% | viability, T/C (second compound 3.16 µM, first compound 3.16 µM) 0.58% | viability, T/C (second compound 3.16 µM, first compound 10 µM) 0.34% | viability, T/C [21] 0.23% | viability, T/C [22] 0.29% | viability, T/C [23] 0.24% | viability, T/C [24] 0.25% | viability, T/C (second compound 10 µM, first compound 3.16 µM) 2.61% | viability, T/C (second compound 10 µM, first compound 10 µM) 0.28%
< 31.6 nM: IC50 (second compound 0.0316 µM) | IC50 (second compound 0.1 µM) | IC50 (second compound 0.316 µM) | IC50 (second compound 1 µM) | IC50 (second compound 3.16 µM) | IC50 (second compound 10 µM)

CCc1c2c(nc3ccc(O)cc13)-c1cc3c(c(=O)n1C2)COC(=O)[C@]3(O)CC + CN1CCN(c2cc(C(=O)Nc3cc4cc(-c5cnn(C)c5)ccc4cn3)ccn2)CC1
active: viability, T/C [3] 6.46% | viability, T/C [4] 1.65% | viability, T/C [7] 3.35% | viability, T/C [8] 0.91% | viability, T/C (second compound 0.316 µM, first compound 0.00316 µM) 6.81% | viability, T/C (second compound 0.316 µM, first compound 0.01 µM) 5.74% | viability, T/C [9] 3.64% | viability, T/C [10] 2% | viability, T/C [11] 0.48% | viability, T/C [12] 1.92% | viability, T/C (second compound 1 µM, first compound 0.00316 µM) 0.35% | viability, T/C (second compound 1 µM, first compound 0.01 µM) 0.69% | viability, T/C [13] 3.07% | viability, T/C [14] 0.44% | viability, T/C [15] 0.26% | viability, T/C [16] 1.23% | viability, T/C (second compound 3.16 µM, first compound 0.00316 µM) 0.46% | viability, T/C (second compound 3.16 µM, first compound 0.01 µM) 0.62% | viability, T/C [17] 1.9% | viability, T/C [18] 0.34% | viability, T/C [19] 0.73% | viability, T/C [20] 0.29% | viability, T/C (second compound 10 µM, first compound 0.00316 µM) 0.14% | viability, T/C (second compound 10 µM, first compound 0.01 µM) 0.25% | viability, T/C [21] 1.21% | viability, T/C [22] 0.21% | viability, T/C [23] 0.65% | viability, T/C [24] 3.41%
7.79 nM: IC50 (second compound 0.0316 µM)
< 3.16 nM: IC50 (second compound 0.1 µM) | IC50 (second compound 0.316 µM) | IC50 (second compound 1 µM) | IC50 (second compound 3.16 µM) | IC50 (second compound 10 µM)
inactive: viability, T/C (second compound 0.0316 µM, first compound 0.00316 µM) 62.2% | viability, T/C (second compound 0.0316 µM, first compound 0.01 µM) 47.5% | viability, T/C [1] 26.7% | viability, T/C [2] 14.5% | viability, T/C (second compound 0.1 µM, first compound 0.00316 µM) 49.3% | viability, T/C (second compound 0.1 µM, first compound 0.01 µM) 38.7% | viability, T/C [5] 23.3% | viability, T/C [6] 10.7%
